# Source: US9968610B2, “Pyrrolopyrimidine derivatives as NR2B NMDA receptor antagonists” (Rugen Holdings (Cayman) Limited, priority 2014, dated 2018)
# Tested on: Rats
# Assay: Electroconvulsive threshold (ECT) test
# Assay type: in vivo, rat
# Settings: p.o. 60 minutes before ECS, theophylline 128 mg/kg, diazepam 16 mg/kg
row,Compound,pro- or anticonvulsant activity (electroconvulsive threshold)
1,CN1C(=O)CN=C(c2ccccc2)c2cc(Cl)ccc21 [diazepam],expected pro- and anticonvulsant activities
2,"Cn1c(=O)c2[nH]cnc2n(C)c1=O [theophylline, Theophylline]",expected pro- and anticonvulsant activities
